Experimental data reported in patent publication US20230183640A1, “METABOLIC INHIBITORS WITH EFFICACY FOR INHIBITING SULFIDE PRODUCTION IN HARSH ENVIRONMENTS” (MC (US) 3 LLC, priority 2020, published 2023).

Assays:
[1] = test system: Desulfovibrio alaskensis 14563; experiment: H2S and Log (Growth) efficacy, 10 mL Serum Vial Method; assay type: cell-based
Protocol: (§1) A lyophilized Desulfovibrio alaskensis 14563, Desulfovibrio longus 51456, and Desulfovibrio gabonensis 700201 pure cultures received from ATCC were resuspended individually in 500 ul of MB 1250. Aseptically, the content was transferred to a 5-mL tube of MB1250 medium. The cultures were incubated in an anaerobic chamber at 30° C. for 72 hrs. Subsequently, an individual stock culture with a final concentration of 25% glycerol were prepared by adding equal volumes of culture and 50% glycerol. 1 ml of the cultures were then transferred to 2-ml cryogenic vials and stored at −80° C. The purity of the stock cultures was evaluated through PCR, by amplifying the 16S rDNA region, and thus, it was verified that the original ATCC sample was a pure culture. 48-hour cultures of ATCC Desulfovibrio alaskensis 14563, Desulfovibrio longus 51456, and Desulfovibrio gabonensis 700201 were prepared in an anaerobic chamber. Each culture was prepared as a 1:10 culture by taking 1 milliliter (mL) of a pure culture and inoculating 9 milliliters (mL) of fresh MB1250 media. The Desulfovibrio alaskensis 14563 and Desulfovibrio gabonensis 700201 were all grown at 30° C. and the Desulfovibrio longus 51456 culture was grown at 35° C.
After the 48-hour incubation, 600 microliters (μL) were taken from the Desulfovibrio alaskensis 14563 culture and optical density (OD) was measured using a Thermofisher Spectronic 200 Spectrophotometer at 600 nm. Each culture was diluted to 0.05 OD600 in fresh MB1250 media and 5 mL of culture solution is transferred to 10 mL Vials and compound Cis stock solution is added. In Table 4 and 5, the concentrations of the compound C1 used for the experiments are listed. Each experiment was done with at least three replicates for different treatments and non-treatment controls. At 2 days, 3 days and 5 days, enumeration plates were made, and sulfide samples were taken in triplicate.
The enumerations were done in triplicate having 20 μL taken from each vial and placing them into 3 wells of first row in a 96-well plate. Then, the same serial dilution process was done with the test plate procedure as described in 96-well plate method. These enumerations were read after 7 days of growth at 30° C. in the anaerobic chamber. For the sulfide assay, 9 μL were taken from each vial and placed in 3 wells with 2% zinc acetate. The assay procedure was the same as described in 96-well plate method.

[2] = test system: Desulfovibrio alaskensis 14563; experiment: H2S and Log (Growth) efficacy against SRB, 96-Well Plate Method; assay type: cell-based
Protocol: as §1
After the 48-hour incubation, 600 microliters (μL) were taken from each culture and optical density (OD) was measured using a Thermofisher Spectronic 200 Spectrophotometer at 600 nm. Each culture was diluted to 0.05 OD600 in fresh MB1250 media and added to the 96 well plates. Edge wells were not used due to their inherent variability and evaporation of the media. Each of the components were added at their respective concentrations for a final volume of 500 μL per well. In Table 3, 6 and 7, the concentrations of the compound used for the experiments are listed. Each experiment was done with at least three replicates for different treatments and non-treatment controls. […] Plates were then sealed with a titer-top and placed into anaerobic boxes and incubated in an anaerobic incubator at 30° C.
At each time point, sulfide samples were taken, and enumeration plates were made. Enumeration plates were made to determine the log growth in each dosed sample. For this process, enumeration plates were prepared by adding 180 μL fresh media MB1250 containing 0.01 wt % ferrous ammonium sulfate. 20 μL was taken from each well of the challenge plates and transferred to the enumeration plates using a 20-200 μL multichannel pipette. Enumeration plates were mixed three times using the multichannel pipette and serial diluted down the plate tenfold (20 μL into 180 μL). This serial dilution process was repeated for all challenge plate rows giving a total of 6 enumeration plates.
After 7 days these enumeration plates were read. The ferrous ammonium sulfate in each plate would be converted to iron sulfide, changing wells with SRB growth from clear to black. By counting the number of black wells in a row, the log growth from the original well in the challenge plate can be determined.
To determine hydrogen sulfide production in each sample, sulfide samples were also taken from each challenge plate. From each well, 9 μL were taken and added to 60 μL of 2% zinc acetate with 0.02% acetic acid. Then, 180 μL of milliQ water was added. 60 μL of stock solution 1 containing 64% sulfuric acid, <1% Dimethyl-4-phenylenediamine (DMPD), water to 100% was added to each well on the plates. This was followed by 3 μL of stock solution 3 containing 50% Iron (III) chloride. All chemicals are ordered from Fisher Scientific and used as received. These were mixed three times and read after 15 minutes. The plates were read at 670 nm using a Biotek microplate reader. Absorbance readings were converted to mM using a standard curve and this was converted to parts per million using the molar mass of sulfur. The standard curves were made using sodium sulfide nonahydrate solutions to give final solutions of 0, 0.125, 0.25 0.5, 1.0, and 1.5 ppm.

O=C(CN1C(=O)c2cccc3cccc(c23)C1=O)NO [C1]
H2S ([1]; 2 days, 0.09 PPM): 233.1 PPM
Log (Growth) ([1]; 2 days, 0.09 PPM): 7.9
H2S ([1]; 2 days, 0.19 PPM): 202.1 PPM
Log (Growth) ([1]; 2 days, 0.19 PPM): 8.0
H2S ([1]; 2 days, 0.38 PPM): 170.4 PPM
Log (Growth) ([1]; 2 days, 0.38 PPM): 7.8
H2S ([1]; 2 days, 0.75 PPM): 121.6 PPM
Log (Growth) ([1]; 2 days, 0.75 PPM): 7.2
H2S ([1]; 3 days, 0.75 PPM): 190.2 PPM
Log (Growth) ([1]; 3 days, 0.75 PPM): 7.4
H2S ([1]; 3 days, 1.5 PPM): 50.1 PPM
Log (Growth) ([1]; 3 days, 1.5 PPM): 4.8
H2S ([1]; 3 days, 3.0 PPM): 23.1 PPM
Log (Growth) ([1]; 3 days, 3.0 PPM): 4.0
H2S ([1]; 3 days, 6.0 PPM): 19.2 PPM
Log (Growth) ([1]; 3 days, 6.0 PPM): 0.0
H2S ([1]; 5 days, 0.75 PPM): 253.3 PPM
Log (Growth) ([1]; 5 days, 0.75 PPM): 7.9
H2S ([1]; 5 days, 1.5 PPM): 69.9 PPM
Log (Growth) ([1]; 5 days, 1.5 PPM): 6.2
H2S ([1]; 5 days, 3.0 PPM): 19.5 PPM
Log (Growth) ([1]; 5 days, 3.0 PPM): 1.0
H2S ([1]; 5 days, 6.0 PPM): 15 PPM
Log (Growth) ([1]; 5 days, 6.0 PPM): 0.0
H2S ([2]; 3 days, 6.4 PPM): 15.5 PPM
Log (Growth) ([2]; 3 days, 6.4 PPM): 2.7
H2S ([2]; 3 days, 12.8 PPM): 13.5 PPM
Log (Growth) ([2]; 3 days, 12.8 PPM): 2.0
H2S ([2]; 3 days, 25.6 PPM): 15.1 PPM
Log (Growth) ([2]; 3 days, 25.6 PPM): 0.0
H2S ([2]; 3 days, 51.3 PPM): 15.4 PPM
Log (Growth) ([2]; 3 days, 51.3 PPM): 0.0
H2S ([2]; 3 days, 102.5 PPM): 13.6 PPM
Log (Growth) ([2]; 3 days, 102.5 PPM): 0.3
H2S ([2]; 3 days, 205.0 PPM): 12.7 PPM
Log (Growth) ([2]; 3 days, 205.0 PPM): 0.3
H2S ([2]; 6 days, 6.4 PPM): 18.1 PPM
Log (Growth) ([2]; 6 days, 6.4 PPM): 3.3
H2S ([2]; 6 days, 12.8 PPM): 23.5 PPM
Log (Growth) ([2]; 6 days, 12.8 PPM): 2.7
H2S ([2]; 6 days, 25.6 PPM): 8.8 PPM
Log (Growth) ([2]; 6 days, 25.6 PPM): 1.0
H2S ([2]; 6 days, 51.3 PPM): 8.3 PPM
Log (Growth) ([2]; 6 days, 51.3 PPM): 0.0
H2S ([2]; 6 days, 102.5 PPM): 8.7 PPM
Log (Growth) ([2]; 6 days, 102.5 PPM): 0.0
H2S ([2]; 6 days, 205.0 PPM): 9.0 PPM
Log (Growth) ([2]; 6 days, 205.0 PPM): 0.0
